{"source": "patent US12083157B2", "about": "“Use of polylysine dendrimers in the prevention and management of acne-prone skin and acneic skin” (Lucas Meyer Cosmetics, priority 2019, dated 2024)", "key": {"IL-8": {"test_system": "IL-8", "assay": "IL1-α-induced IL-8 production in normal human dermal fibroblasts (ELISA)", "assay_type": "cell-based", "procedure": "There is evidence that C. acnes is involved in invoking an inflammatory response. […] Therefore, the effect of the G2 dendrimer on inflammation in normal human dermis fibroblasts (NHDF) was assessed. NHDF were isolated from human dermis and maintained in DMEM containing 10% fetal calf serum, 1% antibiotics (penicillin/streptomycin) and 1% L-glutamine at 37° C. under 5% CO2 and 95% humidity.\nIL-8 mediates inflammatory reactions in the skin through the recruitment of neutrophils and other immune cells to invade injured or inflamed tissue. IL-8 secretion is inducible in cultured human dermal fibroblasts following activation with the pro-inflammatory cytokine IL-la (Larsen, et al. (1989) Immunology 68(1):31-6). Accordingly, non-confluent NHDF cells were treated with IL1-α (0.1 ng/mL), as an inducer of IL-8 production, in the presence or absence of G2 dendrimer (10^−9M, 10^−8M, 10^−7M or 10^−6 M) or hydrocortisone (0.05 μg/mL) as the positive anti-inflammatory control. IL-8 release from fibroblasts was determined by enzyme-linked immunosorbent assay (ELISA)."}, "[1]": {"test_system": "adhesion of tritium-labeled C. acnes IP 53117T to keratinocytes (NCTC 2544)", "assay": "C. acnes adhesion to keratinocytes, Method 1 (concomitant, 2 hours)", "assay_type": "cell-based, Cutibacterium acnes", "settings": "after 2 hours, vs absence of G2 dendrimer", "procedure": "(§1) Keratinocytes were isolated from the human epithelial cell line NCTC 2544 (Neufahrt, et al. (1978) Arch. Dermaol. Res. 256(3):255-60). Culture were maintained with Dulbecco's modified Eagle's medium (DMEM) containing 10% fetal calf serum, 1% antibiotics (penicillin/streptomycin), and 1% L-glutamine at 37° C. under 5% CO2 and 95% humidity.\nTo monitor bacterial adhesion, adenine of the IP 53117T bacterial strain (belonging to acneic phylotype IA1) was labeled with tritium and bacterial adhesion to the surface of keratinocytes was determined by counting the radioactivity. • Method 1. […] After incubation for 2 hours (37° C., 5% CO2), cells were washed with phosphate-buffered saline (PBS) to remove non-adherent bacteria. • Method 2. The keratinocytes were pretreated for 24 hours with the G2 dendrimer. Labeled bacteria (2×10^8 microorganisms/mL) was then added to the cell monolayer for 2 hours without prior removal of the G2 dendrimer."}, "TLR2": {"test_system": "TLR2", "assay": "TLR2 immunostaining in human skin explants challenged with C. acnes", "assay_type": "cell-based", "settings": "topical application at 2 and 5 ppm", "procedure": "(§2) Skin Treatment. Fifteen human skin specimens were obtained from patients undergoing plastic surgery (Caucasian women, 26 years old). Skin explants were maintained in culture for 8 days. A 1-hour treatment with G2 dendrimer (2 and 5 ppm) was concomitant with application of freeze-dried C. acnes (30 μL) at days 0, 1, 4 and 6 (FIG. 2). At day 8, explants were fixed and embedded in paraffin. Thick sections of 5 μm were stained with Masson's Trichrome stain or an anti-TLR2 antibody.\nImmunostaining of TLR2 TLR2 is known to mediate the inflammatory response of skin to acne (Kim, et al. (2002) 1 Immunol. 169(3):1535-41; McInturff & Kim (2005) Semin. Cutan. Med. Surg. 24(2):73-8). Accordingly, TLR2 protein in frozen sections was assessed with an anti-TLR2 (clone TL2.1; Santa Cruz). Sections were incubated with a 1:25 dilution of the anti-TLR2 antibody overnight at 4° C. and antibody binding was subsequently detected with biotin/streptavidin-FITC conjugate. Nuclei were stained with propidium iodide."}, "C. acnes": {"test_system": "C. acnes", "assay": "Inhibition of C. acnes proliferation, comparison with linear polylysine", "assay_type": "cell-based, Cutibacterium acnes"}, "[2]": {"test_system": "C. acnes non-acneic strain RT6 (phylotype II)", "assay": "Membrane fluidity of C. acnes strain RT6", "assay_type": "cell-based, Cutibacterium acnes", "settings": "6·10^−6 M, 72 h of incubation", "procedure": "The impact of G2 dendrimer on the membrane fluidity of three bacterial strains of Cutibacterium acnes was tested. Two of the tested strains of C. acnes are “acneic” strains belonging to phylotype IA1 (RT4 and RT5) while the last one is a non-acneic strain (RT6) belonging to phylotype II. Several colonies of RT4, RT5 and RT6 (C. acnes strains) were scrapped and put in reinforced clostridial medium (RMC medium). The tubes were vortexed few seconds and homogenized before to be completely filled out with RMC in order to create anaerobic state. The tubes were then incubated at 37° C. for at least 48 h.\nBacterial cultures were collected and the OD was taken at 580 nm. After inoculation, the bacteria were sending in microplate and treated or not with G2 dendrimer. After 2 hours in anaerobic chamber, the plate was transferred in microplate reader for 72 h (OD 580 nm with measurement every 30 min). Then, the generation time of the bacteria was analyzed for each C. acnes strains. The G2 Dendrimer was tested at the following concentrations: 6·10^−6M, and 6·10^−7M."}, "IL1-α": {"test_system": "IL1-α", "assay": "IL1-α quantification in culture media of human skin explants (ELISA)", "assay_type": "cell-based", "procedure": "as §2\nQuantification of IL1-α Cytokine. The concentration of IL1-α in the culture media was determined using an ELISA assay kit (Cayman, Ann Arbor, MI). The absorbances were measured using a microplate reader Tecan Infinite M200 Pro, combined with Magellan's software."}, "[3]": {"test_system": "stratum corneum of human skin explants", "assay": "Keratolytic effect in human skin explants exposed to C. acnes", "assay_type": "cell-based", "settings": "explants at day 8", "procedure": "as §2\nEvaluation of Keratolytic Effect. The general morphology and in particular stratum corneum of the explants were analyzed. Images were taken with a Leica Orthoplan microscope equipped with a digital camera (tri-CCD) driven by the acquisition and archiving software Leica IM1000."}, "[4]": {"test_system": "C. acnes strain IP 53117T", "assay": "Inhibition of C. acnes growth in culture (MIC, 96-well plates)", "assay_type": "cell-based, Cutibacterium acnes", "settings": "C. acnes strain IP 53117T (phylotype IA1); 24 to 48 hours at 37° C.", "procedure": "The effectiveness of G2 dendrimer for inhibiting the growth of C. acnes in culture was assessed. G2 dendrimer was used at a final concentration ranging between 10^−2 M and 10^−5M. Experiments were performed using C. acnes strain IP 53117T (see FR2844715 A1), a strain known to cause acne. This strain belongs to a ribotype 1 (RT1) from phylotype 1A1 and is thus an acneic strain.\nBacteria (10^8 CFU/ml) were inoculated in 96-well plates containing a range of G2 dendrimer concentrations."}, "[5]": {"test_system": "Cutibacterium acnes non-acneic strain ribotype 6 (RT6) HL110PA3/HM-554", "assay": "Biofilm formation on glass slide, strain RT6", "assay_type": "cell-based", "settings": "72 h biofilm", "procedure": "(§3) The Cutibacterium acnes acneic strain ribotype 5 (RT5) HL043PA2/HM-514 and the Cutibacterium acnes non-acneic strain ribotype 6 (RT6) HL110PA3/HM-554 were obtained from BEI Resources American Type Culture Collection (Virginia, United States). These two strains belong to the phylotypes IA1 and II, respectively (McDowell, 2017). Bacteria, stored at −80° C., were initially plated on brain-heart infusion (BHI, BD) agar plates for RT6 strain and on reinforced clostridial medium (RCM) agar plates for RT5 strain, and were incubated under anoxic conditions at 37° C. using a BD GasPack™ System. Colonies were transferred into sterile conical 15-mL tubes (Falcon) containing 12 ml of RCM and after vortexing for homogenization, the falcon tube is completely filled with RCM medium and incubated for 72 h at 37° C. […]\n(§4) After 72 h (biofilm formation), the RCM medium was carefully removed in each well in order to remove planktonic cells. […] Syto 9 was excited at 488 nm and fluorescence emission was detected from 500 to 550 nm. […] Quantitative analyses of images stacks were performed using the COMSTAT software (see Worldwide Website: imageanalysis.dk/) (Heydorn et al., 2000). Maximal and average biofilm thickness (μm) and their biomass volume (μm^3/μm^2) were determined. […]"}, "[6]": {"test_system": "C. acnes acneic strain RT4 (phylotype IA1)", "assay": "Membrane fluidity of C. acnes strain RT4", "assay_type": "cell-based, Cutibacterium acnes", "settings": "6·10^−6M, 72 h of incubation"}, "[7]": {"test_system": "C. acnes acneic strain RT5 (phylotype IA1)", "assay": "Membrane fluidity of C. acnes strain RT5", "assay_type": "cell-based, Cutibacterium acnes", "settings": "6·10^−6M, 72 h of incubation"}, "[8]": {"assay": "Anti-inflammatory effect, comparison with linear polylysine"}, "[9]": {"test_system": "Cutibacterium acnes acneic strain ribotype 5 (RT5) HL043PA2/HM-514", "assay": "Biofilm formation on glass slide, strain RT5", "assay_type": "cell-based", "settings": "72 h biofilm", "procedure": "as §3, §4"}, "[10]": {"test_system": "adhesion of tritium-labeled C. acnes IP 53117T to keratinocytes (NCTC 2544)", "assay": "C. acnes adhesion to keratinocytes, Method 2 (24-hour pretreatment)", "assay_type": "cell-based, Cutibacterium acnes", "procedure": "as §1\nTo monitor bacterial adhesion, adenine of the IP 53117T bacterial strain (belonging to acneic phylotype IA1) was labeled with tritium and bacterial adhesion to the surface of keratinocytes was determined by counting the radioactivity. • Method 1. Labeled bacteria (2×10^8 microorganisms/mL) were combined with varying amounts of G2 dendrimer (final concentration between 10^−5M and 6.25×10^−6 M) and deposited on the surface of a monolayer of keratinocytes. After incubation for 2 hours (37° C., 5% CO2), cells were washed with phosphate-buffered saline (PBS) to remove non-adherent bacteria. • Method 2. The keratinocytes were pretreated for 24 hours with the G2 dendrimer. Labeled bacteria (2×10^8 microorganisms/mL) was then added to the cell monolayer for 2 hours without prior removal of the G2 dendrimer."}}, "note": "Several values for one entry are separate records, joined by “and”; a condition that tells them apart may be missing. Equal values may be shown once."}
{"compound": "C[C@]12CCC(=O)C=C1CC[C@@H]1[C@@H]2[C@@H](O)C[C@@]2(C)[C@H]1CC[C@]2(O)C(=O)CO", "note": "[hydrocortisone, reference compound]", "values": [{"measurement": "decrease of IL-8 production", "setting": "IL-8; NHDF, IL1-α 0.1 ng/mL, hydrocortisone 0.05 μg/mL", "value": 83, "unit": "%"}]}
{"compound": "poly(L-lysine) G2 [G2 dendrimer]", "values": [{"measurement": "inhibition of adhesion of C. acnes on keratinocyte surfaces", "setting": "[1]; 2.5×10^−7 M", "value": 29, "unit": "%"}, {"measurement": "inhibition of adhesion of C. acnes on keratinocyte surfaces", "setting": "[1]; 5×10^−6 M", "value": 40, "unit": "%"}, {"measurement": "inhibition of adhesion of C. acnes on keratinocyte surfaces", "setting": "[1]; 10^−5 M", "value": 50, "unit": "%"}, {"measurement": "TLR2 overexpression induced by C. acnes", "setting": "TLR2", "value": "complete inhibition"}, {"measurement": "management of IL-8 production following IL1-α stimulation, acetate vs chloride or carbonate counter-anions", "setting": "IL-8; dermal fibroblasts in vitro", "value": "more effective"}, {"measurement": "inhibition of C. acnes proliferation compared with linear polylysine", "setting": "C. acnes", "value": "more effective than linear polylysine"}, {"measurement": "membrane rigidity (membrane fluidity) vs control", "setting": "[2]", "value": "does not exhibit any significant effect"}, {"measurement": "decrease in IL1-α production compared to treatment with C. acnes", "setting": "IL1-α; 2 ppm, day 1", "value": 49, "unit": "%"}, {"measurement": "decrease in IL1-α production compared to treatment with C. acnes", "setting": "IL1-α; 2 ppm, day 4", "value": 28, "unit": "%"}, {"measurement": "decrease in IL1-α production compared to treatment with C. acnes", "setting": "IL1-α; 5 ppm, day 1", "value": 42, "unit": "%"}, {"measurement": "decrease in IL1-α production compared to treatment with C. acnes", "setting": "IL1-α; 5 ppm, day 4", "value": 27, "unit": "%"}, {"measurement": "keratolytic effect (morphology of stratum corneum)", "setting": "[3]; 2 ppm topical", "value": "moderate separation of the upper layers of the stratum corneum"}, {"measurement": "keratolytic effect (morphology of stratum corneum)", "setting": "[3]; 5 ppm topical", "value": "lower detachment"}, {"measurement": "MIC (minimum inhibitory concentration)", "setting": "[4]", "value": "10-20 ppm and 20 ppm"}, {"measurement": "biomass density in the biofilm", "setting": "[5]", "value": "no effect"}, {"measurement": "change in thickness of the biofilm", "setting": "[5]", "value": "−32", "unit": "%"}, {"measurement": "membrane rigidity (membrane fluidity) vs control", "setting": "[6]", "value": "significantly decreased"}, {"measurement": "membrane rigidity (membrane fluidity) vs control", "setting": "[7]", "value": "significantly decreased"}, {"measurement": "anti-inflammatory effect compared with linear polylysine", "setting": "[8]", "value": "more effective than linear polylysine"}, {"measurement": "change in biomass density in the biofilm", "setting": "[9]", "value": "−50", "unit": "%"}, {"measurement": "change in thickness of the biofilm", "setting": "[9]", "value": "−48", "unit": "%"}, {"measurement": "inhibition of adhesion of C. acnes on keratinocyte surfaces", "setting": "[10]; 2.5×10^−6 M", "value": 35, "unit": "%"}, {"measurement": "inhibition of adhesion of C. acnes on keratinocyte surfaces", "setting": "[10]; 5×10^−6 M", "value": 51, "unit": "%"}, {"measurement": "inhibition of adhesion of C. acnes on keratinocyte surfaces", "setting": "[10]; 10^−5M", "value": 50, "unit": "%"}]}
